These results are taken from EP0727938B1, “DEVICE AND METHOD FOR PHOTOACTIVATION” (Cerus Corporation, priority 1993, dated 1995).

One data set concerns human platelets. Briefly: Platelet activation: GMP140 expression measured with CD62 antibody by flow cytometry. It is filed as cell-based. As to conditions: for Activation, PMA Activated, Day 3: storage Day 3, PMA 10-^7 M; for Activation, PMA Activated, Day 5: storage Day 5, PMA 10-^7 M. The source says:
When platelets become activated, an alpha granule membrane glycoprotein called GMP140 becomes exposed on the platelet surface. Less than (5%) of fresh, normal unstimulated platelets express detectable GMP 140 levels by flow cytometry. See generally M.J. Metzelaar, Studies on the Expression of Activation-Markers on Human Platelets (Thesis 1991).
To measure GMP140, a small aliquot of platelet rich plasma is placed in HEPES buffer containing a GMP140-binding antibody or control mouse IgG. CD62 is a commercially available monoclonal antibody which binds to GMP 140 (available from Sanbio, Uden, the Netherlands; Caltag Labs, So. San Francisco, CA, and Becton Dickinson, Mountain View, CA). After a fifteen minute incubation, Goat Anti-Mouse IgG conjugated to FITC is added to the tube in saturating amounts. Finally, the cells are diluted in isotonic saline, fixed with paraformaldehyde and analyzed on a FACSCAN™ (Becton Dickinson, Mountain View, CA). The positive control is made by adding Phorbol Myristate Acetate (PMA) to the test system at a final concentration of 10-^7 M.
In this example, CD62 was employed to measure the impact, if any, of irradiation alone on platelet activation. The antibody was stored in small aliquots (0.01 mg/ml) at -40°C prior to use. A mouse IgG control (0.05 mg/ml) (Becton Dickinson, Mountain View, CA #9040) 5X concentrated was employed. At time of use, this was diluted 1:5 in HEPES buffer. The secondary antibody was goat Anti-Mouse IgG conjugated to FITC (TAGO, Burlingame, CA #3506). This was stored in small aliquots at -20°C. Phorbol Myristate Acetate (PMA) (Sigma, St. Louis, MO) was stored at -40°C. At time of use, this was dissolved in DMSO (working concentration was 1.62 X 10^-5 M).
16% Paraformaldehyde (PFA) (Sigma, St. Louis, MO) was prepared by adding 16 grams paraformaldehyde to 100 ml de-ionized water. This was heated to 70°C, whereupon 3 M NaOH was added dropwise until the solution was clear. The solution was cooled and the pH was adjusted to 7.4 with 1 N HCl. This was filtered and stored. A commercially available isotonic buffer was used: Hematall Isotonic Diluent (Fisher # CS 606-20).
Following irradiation, the platelets were stored for 5 days. At specific time points, aliquots were taken and processed.
Processing involved adding an aliquot (e.g. 5 microliters) of platelet concentrate to each microcentrifuge tube containing the antibody and appropriate reagents and this was mixed very gently by vortex. The samples were incubated for 15 minutes at room temperature.
The Goat anti-Mouse IgG-FITC (diluted 1:10 in HEPES buffer) was added (5 microliters) to each tube and the solution was mixed by gentle vortex. The samples were incubated for an additional 15 minutes at room temperature.
Isoton II was added (1 ml) to each tube and mixed gently with a polypropylene disposable pipette. 8% PFA in HEPES (150 microliters) was added to each diluted sample to final 1%. The platelets were analyzed on the FACSCAN™.
Shorter Irradiation Times.

Data set [1] is described as follows: Photochemical breakdown measured by reverse phase HPLC. Conditions: Figure 7. The data set is classed as physicochemical.
The subject of data set [2] is single stranded 5S ribosomal RNA. As to conditions: irradiation at 4°C compared to 20°C; cited from earlier work.
The test system of a further data set is viruses. Conditions: 300 ug/ml of 8-MOP, one hour or more of irradiation with ultraviolet light; cited from earlier work.
For data set [3] the following is noted: non activated 8-MOP; cited from earlier work.

As to `CCCCCCCCCCCCCC(=O)O[C@@H]1[C@@H](C)[C@@]2(O)[C@@H](C=C(CO)C[C@]3(O)C(=O)C(C)=C[C@@H]23)[C@@H]2C(C)(C)[C@]12OC(C)=O` [PMA, Phorbol Myristate Acetate], the “Activation, PMA Activated, Day 3” value in the data set on human platelets (Control (no irradiation)) is reported as 85%; in the data set with human platelets (UV 5'), 87%; in the data set on human platelets (UV 10') it was 84%. The “Activation, PMA Activated, Day 5” value was 89% in the data set with human platelets (Control (no irradiation)), 86% in the data set with human platelets (UV 5') and 79% with human platelets (UV 10').
Take `Cc1oc2c(C)c3oc(=O)cc(C)c3cc2c1CN` [AMT, 4'-aminomethyl-4,5',8-trimethylpsoralen]: in data set [1], the “degradation (photochemical breakdown)” value was “degrades more quickly than 8-MOP”.
Regarding `Cc1oc2c(C)c3oc(=O)cc(C)c3cc2c1CO` [HMT, 4'-hydroxymethyl-4,5',8-trimethylpsoralen], the “enhancement of covalent addition of HMT to 5S rRNA” value in data set [2] was “two fold”.
For the compound `COc1c2occc2cc2ccc(=O)oc12` [8-MOP, 8-methoxypsoralen], the inactivation of viruses result in the data set with viruses is “can effectively inactivate viruses”. In data set [3], the mutagenicity result is “not mutagenic”. In addition, the “damage to platelets after irradiation in the presence of psoralen” value in the data set on human platelets (10 ug/ml 8-MOP, five minutes UVA, 25°C, stored for 5 days) is given as “without damage to the cells”.
